{"source": "patent US9790233B2", "about": "“Compositions and methods of modulating 15-PGDH activity” (CASE WESTERN RESERVE UNIVERSITY, priority 2012, dated 2017)", "key": {"[1]": {"test_system": "bone marrow", "assay": "Bone marrow analysis of treated C57BL/6J mice", "type": "in vivo", "details": "IP 5 mg/kg or 20 mg/kg", "source_text": "FIGS. […] Experimental conditions are noted on the figure."}, "[2]": {"test_system": "liver", "assay": "Liver regeneration after partial hepatectomy", "type": "in vivo, mice"}, "[3]": {"assay": "Survival after whole body irradiation", "type": "in vivo, C57BL/6J mice"}}, "data": [{"compound": "CCCC[S+]([O-])c1sc2nc(-c3cccs3)cc(-c3ccccc3)c2c1N", "note": "(stereo not shown) [SW033291, 2-(butylsulfinyl)-4-phenyl-6-(thiophen-2-yl)thieno[2,3-b]pyridin-3-amine]", "values": [{"measurement": "percent of SKL cells", "setting": "[1]", "result": "unchanged"}, {"measurement": "serum ALT levels", "setting": "[2]; 5 mg/kg IP bid, one mouse versus one control mouse", "result": "ALT values are lower"}, {"measurement": "hepatic mitosis versus controls", "setting": "[2]; days 3 and 4", "result": "significantly increased hepatic mitosis"}, {"measurement": "BrdU positive (S-phase) cells in liver", "setting": "[2]; post-operative day 2", "result": "clear increase in numbers of BrdU positive cells"}, {"measurement": "number of mice surviving", "setting": "[3]; 7 Gy, 5 mg/kg IP daily for 7 doses, Day 5", "result": 3}, {"measurement": "number of mice surviving", "setting": "[3]; 7 Gy, Day 6", "result": 3}, {"measurement": "number of mice surviving", "setting": "[3]; 7 Gy, Day 7", "result": 3}, {"measurement": "number of mice surviving", "setting": "[3]; 7 Gy, Day 8", "result": 3}, {"measurement": "number of mice surviving", "setting": "[3]; 7 Gy, Day 9", "result": 3}, {"measurement": "number of mice surviving", "setting": "[3]; 7 Gy, Day 10", "result": 3}, {"measurement": "number of mice surviving", "setting": "[3]; 7 Gy, Day 11", "result": 3}, {"measurement": "number of mice surviving", "setting": "[3]; 7 Gy, Day 12", "result": 3}, {"measurement": "number of mice surviving", "setting": "[3]; 7 Gy, Day 13", "result": 3}, {"measurement": "number of mice surviving", "setting": "[3]; 7 Gy, Day 14", "result": 3}, {"measurement": "number of mice surviving", "setting": "[3]; 7 Gy, Day 15", "result": 3}, {"measurement": "appearance of surviving mice", "setting": "[3]; 7 Gy, Day 25 (cell wraps: Looks / Healthy)", "result": "Looks"}, {"measurement": "number of mice surviving", "setting": "[3]; 9 Gy, 5 mg/kg IP daily for 7 doses, Day 5", "result": 3}, {"measurement": "number of mice surviving", "setting": "[3]; 9 Gy, Day 6", "result": 3}, {"measurement": "number of mice surviving", "setting": "[3]; 9 Gy, Day 7", "result": 3}, {"measurement": "number of mice surviving", "setting": "[3]; 9 Gy, Day 8", "result": 3}, {"measurement": "number of mice surviving", "setting": "[3]; 9 Gy, Day 9", "result": 3}, {"measurement": "number of mice surviving", "setting": "[3]; 9 Gy, Day 10", "result": 3}, {"measurement": "number of mice surviving", "setting": "[3]; 9 Gy, Day 11", "result": 3}, {"measurement": "number of mice surviving", "setting": "[3]; 9 Gy, Day 12", "result": 2}, {"measurement": "number of mice surviving", "setting": "[3]; 9 Gy, Day 13", "result": 2}, {"measurement": "number of mice surviving", "setting": "[3]; 9 Gy, Day 14", "result": 1}, {"measurement": "number of mice surviving", "setting": "[3]; 9 Gy, Day 15", "result": 0}, {"measurement": "number of mice surviving", "setting": "[3]; 11 Gy, 5 mg/kg 1 dose/daily for 7 days, Day 5", "result": 3}, {"measurement": "number of mice surviving", "setting": "[3]; 11 Gy, 5 mg/kg 1 dose/daily, continuous every day, Day 5", "result": 3}, {"measurement": "number of mice surviving", "setting": "[3]; 11 Gy, 5 mg/kg IP daily for 7 doses, Day 5", "result": 3}, {"measurement": "number of mice surviving", "setting": "[3]; 11 Gy, 5 mg/kg, 7 days, 2 dose daily, Day 5", "result": 3}, {"measurement": "number of mice surviving", "setting": "[3]; 11 Gy, 1 dose/daily for 7 days, Day 6", "result": 3}, {"measurement": "number of mice surviving", "setting": "[3]; 11 Gy, 1 dose/daily for 7 days, Day 7", "result": 3}, {"measurement": "number of mice surviving", "setting": "[3]; 11 Gy, 1 dose/daily for 7 days, Day 8", "result": 2}, {"measurement": "number of mice surviving", "setting": "[3]; 11 Gy, 1 dose/daily for 7 days, Day 9", "result": 1}, {"measurement": "number of mice surviving", "setting": "[3]; 11 Gy, 1 dose/daily for 7 days, Day 10", "result": 0}, {"measurement": "number of mice surviving", "setting": "[3]; 11 Gy, 1 dose/daily, continuous every day, Day 6", "result": 3}, {"measurement": "number of mice surviving", "setting": "[3]; 11 Gy, 1 dose/daily, continuous every day, Day 7", "result": 3}, {"measurement": "number of mice surviving", "setting": "[3]; 11 Gy, 1 dose/daily, continuous every day, Day 8", "result": 3}, {"measurement": "number of mice surviving", "setting": "[3]; 11 Gy, 1 dose/daily, continuous every day, Day 9", "result": 2}, {"measurement": "number of mice surviving", "setting": "[3]; 11 Gy, 1 dose/daily, continuous every day, Day 10", "result": 0}, {"measurement": "number of mice surviving", "setting": "[3]; 11 Gy, 7 days, 2 dose daily, Day 6", "result": 3}, {"measurement": "number of mice surviving", "setting": "[3]; 11 Gy, 7 days, 2 dose daily, Day 7", "result": 3}, {"measurement": "number of mice surviving", "setting": "[3]; 11 Gy, 7 days, 2 dose daily, Day 8", "result": 3}, {"measurement": "number of mice surviving", "setting": "[3]; 11 Gy, 7 days, 2 dose daily, Day 9", "result": 2}, {"measurement": "number of mice surviving", "setting": "[3]; 11 Gy, 7 days, 2 dose daily, Day 10", "result": 0}, {"measurement": "number of mice surviving", "setting": "[3]; 11 Gy, Table 7, Day 6", "result": 3}, {"measurement": "number of mice surviving", "setting": "[3]; 11 Gy, Table 7, Day 7", "result": 3}, {"measurement": "number of mice surviving", "setting": "[3]; 11 Gy, Table 7, Day 8", "result": 3}, {"measurement": "number of mice surviving", "setting": "[3]; 11 Gy, Table 7, Day 9", "result": 2}, {"measurement": "number of mice surviving", "setting": "[3]; 11 Gy, Table 7, Day 10", "result": 0}, {"measurement": "longer survival than vehicle control, on average", "setting": "[3]; 11 Gy, any of the dosing schedules", "result": "1 to 2", "unit": "days"}]}]}
